A melting point compilation (Tetko et al.; mined from patent text by program, amines drawn as free bases though some values may be those of a salt)

First: Clc1ccc2c3c([nH]c2c1)C1=CCCCN1CC3
Second: Nc1c(C(=O)c2cccnc2)[nH]c2cc(Cl)ccc12
The melting point of the first is lower: 165 °C for the first, 188 to 189 °C for the second.

Compared with `CCOCc1nc2cnc3ccccc3c2n1CCC(C)C`, `COCCNc1c([N+](=O)[O-])cnc2ccccc12` is higher in melting point: 64 to 65 °C for the first, 113 to 115 °C for the second.

First: CCOC(=O)C1=C(N2CCCC2)N=C(C)C(C(=O)OCC)C1c1ccccc1 (centres undefined)
Second: CCOC(=O)c1ccc(-c2[nH]nc3c2C(=O)c2c(NC(=O)NN4CCC[C@@H]4COC)cccc2-3)s1
The melting point of the first is lower: 57 °C for the first, 221 to 222 °C for the second.

First: Cc1ccc2c(Cl)c3ccccc3nc2c1
Second: Cc1ccccc1-n1c(CCl)nc2ccccc2c1=O
The melting point of the first is lower: 117 to 118 °C for the first, 205 to 206 °C for the second.

Compared with `CC(=O)OC1CC(OC(C)=O)C2(C)C(C1)C(Br)C(Br)C1C3CCC(C(C)CCCC(C)C)C3(C)CCC12` (centres undefined), `CC12CCC3C(CC=C4CC(O)CCC43C)C1CC=C2Br` (centres undefined) is higher in melting point: 155 to 156 °C for the first, 162 to 164 °C for the second.

Compared with `NC(=NCCCc1ccccn1)NCCCc1c[nH]cn1`, `CCCCCc1cc2c(nc(O)n2[C@@H](C)c2ccccc2)c(N)n1` is higher in melting point: 85 to 86 °C for the first, 147 to 148 °C for the second.

First: CC/C=C/CNC(=O)[C@H]1N(C(=O)[C@@H](O)[C@H](Cc2ccccc2)NC(=O)c2cccc(O)c2C)CSC1(C)C
Second: CC(C)C(NC(=O)CCc1ccccn1)C(=O)NC(Cc1ccccc1)C(O)C(Cc1ccccc1)NC(=O)C(NC(=O)CCc1ccccn1)C(C)C (centres undefined)
The melting point of the first is lower: 113 to 115 °C for the first, 216 to 218 °C for the second.

First: O=C(Nc1ccc(CCN2CCCCC2)cc1)C1=Cc2cc(-c3ccccc3)ccc2CC1
Second: O=C1Cc2cc(NC(=O)C(=O)N3CCC(Oc4ccccc4)CC3)ccc2N1
The melting point of the first is higher: 157 to 159 °C for the first, 78 to 81 °C for the second.

First: CCCCCCCCCC[C@@]1(C)OO[C@@H]2C[C@H]1CC(=O)[C@@H]2C
Second: CCCCCCCCc1ccc(S(=O)(=O)Nc2nncs2)cc1
The melting point of the first is lower: 40 °C for the first, 123 to 124 °C for the second.

First: COC(=O)C=C1C=C(C(C)(C)C)C(=O)C(C(C)(C)C)=C1
Second: COC(=O)C(=O)c1cc(C(C)(C)C)c(O)c(C(C)(C)C)c1
The melting point of the first is higher: 87 to 89 °C for the first, 82.5 to 84 °C for the second.

Compared with `COC(=O)c1cccc2nc(OCC(F)(F)F)n(Cc3ccc(-c4ccccc4C#N)cc3)c12`, `COc1ccc(C2(O)C(=O)N(Cc3ccc(Cl)cc3)c3ccccc32)cn1` (centres undefined) is higher in melting point: 143 to 145 °C for the first, 182 to 184 °C for the second.

First: O=C(O)c1cnc(N2CCCC2)c(OCC2CCCC2)n1
Second: O=C(OCC1CCCCC1)c1ncn2c1[C@@H]1CCCN1C(=O)c1c(Cl)cccc1-2
The melting point of the first is higher: 204 to 206 °C for the first, 123 to 124 °C for the second.

First: CS(=O)(=O)COC(=O)c1oc(-c2ccccc2)cc(=O)c1Br
Second: COC(=O)c1ccc(N2C(=O)CCC2(CBr)COC(=O)c2ccccc2)c([N+](=O)[O-])c1 (centres undefined)
The melting point of the first is higher: 192 °C for the first, 183 to 184 °C for the second.

First: O=c1cc(C(F)(F)F)c2ccc(N3CCOCC3)nc2o1
Second: Cc1ccc(C(=O)c2cc(CN3CCOCC3)c(O)c(C(C)(C)C)c2)cc1
The melting point of the first is higher: 218 to 220 °C for the first, 131 to 133 °C for the second.

Compared with `Clc1ccc(/C=C/c2cc(Cl)cc(Cl)c2)cc1`, `O=C(c1cccs1)c1ccc(Cl)cc1Cl` is lower in melting point: 94 to 96 °C for the first, 75 °C for the second.

Compared with `CCCCCc1nc2cc(Cl)c(S(N)(=O)=O)cc2[nH]1`, `CCCc1nn(C)c2c(=O)[nH]c(Cc3ccc(S(=O)(=O)O)cc3)nc12` is higher in melting point: 183 to 185 °C for the first, > 350 °C for the second.

First: O=C(N[C@@H](Cc1ccccc1)C(=O)Oc1ccc([N+](=O)[O-])cc1)OCc1ccccc1
Second: O=C(Cc1ccccc1)NCC(O)c1ccccc1 (centres undefined)
The melting point of the first is higher: 124 to 126 °C for the first, 97 to 99 °C for the second.

Compared with `COc1ccc(N2CCN(c3c(C)c(C)c4c(c3C)CC(C)(C)O4)CC2)cn1`, `CON1CCC2(CC1)C(=O)C(Cl)(c1cc(C)c(C)cc1Cl)C(=O)N2C` (centres undefined) is lower in melting point: 178 to 180 °C for the first, 93 to 94 °C for the second.

First: O=C1CC[C@@H](CCCO)[C@H](c2ccc(OCc3ccccc3)cc2OCc2ccccc2)C1 (relative stereo)
Second: CCOC(=O)CCCn1cc(C(=O)c2ccc(OCc3ccc(C)cc3)c(O)c2)c2ccccc21
The melting point of the first is lower: 110 to 117 °C for the first, 125 to 127 °C for the second.

First: Cc1ccc(-c2c(NS(=O)(=O)c3ccc(C(C)(C)C)cc3)nc(-c3cccs3)nc2OCCO)cc1
Second: Cc1ccc(COc2ncc(F)c(NS(=O)(=O)c3ccc(C)cc3)n2)cc1
The melting point of the first is higher: > 300 °C for the first, 120 to 122 °C for the second.

First: CCCCC(C(=O)O)c1cccc(Oc2ccccc2C)c1O (centres undefined)
Second: N=C(N)c1ccc(NC(C(=O)O)c2ccccc2OCC(=O)O)cc1 (racemic)
The melting point of the first is lower: 83 to 84 °C for the first, 223 °C for the second.

First: Cc1ccccc1C(=O)N(CN(C)C)c1ccc(C(=O)N2Cc3ccccc3Cc3ccccc32)cc1
Second: CCn1c2ccccc2c2cc(-n3c(CC(=O)O)c(C(=O)O)c4cc(Oc5ccc(C(F)(F)F)cc5)ccc43)ccc21
The melting point of the first is lower: 131 to 133 °C for the first, 243 to 245 °C for the second.

First: CCN(CC)C(=O)c1cc(C(C)(C)C)c(OC(=O)c2cc(C(C)(C)C)c(O)c(C(C)(C)C)c2)c(C(C)(C)C)c1
Second: CC(C)(C)c1cc(C(=O)NCc2ccc([N+](=O)[O-])cc2)cc(C(C)(C)C)c1O
The melting point of the first is lower: 203 to 205 °C for the first, 230 to 231 °C for the second.

First: COc1cc(N)c(C(=O)O)c(OC)c1OC
Second: CCOC(=O)C(C)(C(=O)OCC)c1ccc(N)c(C(F)(F)F)c1
The melting point of the first is higher: 88 to 91 °C for the first, 73 to 75 °C for the second.

First: CN(C(=O)c1ccc(Cn2cnc3c(Cl)nc(Cl)nc32)cc1)C1CCCCC1
Second: O=C(O)C(=O)c1ccc(OCCOC2CCCCCCC2)cc1
The melting point of the first is higher: 134 to 136 °C for the first, 64 to 65 °C for the second.

First: CON(Cc1nc2c(N)nc3cc(OCc4ccccc4)ccc3c2n1CC1CCOCC1)S(C)(=O)=O
Second: NC(=O)N1CCC(c2nn(-c3ccccc3)c3cc(F)ccc23)CC1
The melting point of the first is higher: 195 to 197 °C for the first, 149 to 151 °C for the second.

Compared with `S=c1c2c(ncn2Cc2cccnc2)c2cccnc2n1-c1ccccc1`, `Nc1nc(-c2ccccn2)nc2ccccc12` is lower in melting point: 222 to 224 °C for the first, 173 to 174 °C for the second.

Compared with `CSc1ccc([N+](=O)[O-])c(C#N)c1`, `CCOC(=O)C(C)(C)n1c(=O)[nH]c2ccc([N+](=O)[O-])cc2c1=O` is higher in melting point: 112 to 113 °C for the first, 184 to 185 °C for the second.

First: CCCn1c(=O)c2[nH]c(-c3ccc(C#N)cc3)nc2n(C)c1=O
Second: Cn1c(-c2ccc3c(c2)C(C)(C)OC(=O)N3)ccc1[N+](=O)[O-]
The melting point of the first is higher: 314 to 318 °C for the first, 180 to 185 °C for the second.

Compared with `CC(C)(C)c1cc(N(C(=O)CCCC(=O)O)c2ccccc2)cc(C(C)(C)C)c1O`, `CC(C)(C)c1cc(C(C)(C)C)n(Cc2ccc(COc3ccc(CCC(=O)O)c(F)c3)cc2)n1` is lower in melting point: 168 to 170 °C for the first, 152 to 153 °C for the second.

First: O=C(O)[C@@H]1Cc2ccccc2N1c1ccc(Cl)nn1
Second: CP1(=O)c2ccccc2CN1c1ccc(Cl)c(Cl)c1 (centres undefined)
The melting point of the first is higher: 211 to 212 °C for the first, 152 to 154 °C for the second.

Compared with `CNC(=O)N(c1ccccc1)c1ccccc1`, `CCOC(=O)CCCCCCCSc1nc(-c2ccccc2)c(-c2ccccc2)[nH]1` is lower in melting point: 170 °C for the first, 77 to 79 °C for the second.

Compared with `COc1cccc(CCl)c1SCc1ccccc1`, `O=C(O)C(Cc1cccc(F)c1)c1ccc(F)cc1` (centres undefined) is higher in melting point: 54 °C for the first, 92 to 94 °C for the second.

Compared with `Sc1nnc(-c2cc3c(Oc4ccc(Cl)cc4)cncc3s2)o1`, `CC(Oc1ccc(-c2ccc(Cl)cc2)cc1)(C(=O)O)C(F)(F)F` (centres undefined) is lower in melting point: 236 to 240 °C for the first, 198 to 199 °C for the second.

Compared with `CCCCOC(=O)[C@H](Cc1ccc(O)cc1)NC(=O)C1(NC(=O)[C@@H](S)C(C)C)CCCC1`, `O=C(O)CC(CCCc1ccc(O)cc1)CC(=O)O` is lower in melting point: 182 to 183 °C for the first, 107 to 108 °C for the second.

Compared with `COc1ccc2c3c1OC(c1ccccc1)N3C(=O)C1CCCN1C2=O` (centres undefined), `COc1cccc2c(=O)n(C)c(-c3ccc(OC4CCN(C5CCC5)CC4)cc3)nc12` is higher in melting point: 157 to 160 °C for the first, 201 to 204 °C for the second.

First: Cc1cc(Oc2cc(C(F)(F)F)ccn2)ccc1OCCNc1ncnc2scnc12
Second: CC(C)(C)c1ccc(Nc2nnc(Cc3ccc(O)nc3)c3ccccc23)cc1
The melting point of the first is lower: 107 to 111 °C for the first, 134 to 135 °C for the second.

Compared with `CNC(=O)c1cccc(F)c1Nc1nc(Nc2ccc3c(c2)N(CCOC)C(=O)CCC3)ncc1Cl`, `CCNC(=O)c1ccccc1Nc1nc(Nc2cc3c(cc2OC)CC(=O)N(CC)CC3)ncc1Cl` is higher in melting point: 199 to 204 °C for the first, 244 to 251 °C for the second.

Compared with `COc1cc(COc2nn(-c3ccccc3)cc2/C=C/C#N)ccc1OCc1nc(-c2ccco2)oc1C`, `O=C(O)CCc1cc(Br)c(OC(=O)c2c3ccccc3nc3ccccc23)c(Br)c1` is higher in melting point: 177 to 178 °C for the first, 240 to 242 °C for the second.

Compared with `CC(=O)Nc1ccc(-c2ccc(C(C)=O)o2)cc1`, `CON=C(C)c1ccc(-c2ccccc2NC(=O)c2c(C)nn(C)c2F)cc1` is lower in melting point: 214 to 215 °C for the first, 153 °C for the second.

Compared with `COc1ccc(C(=O)c2cccc(C)c2Cl)cc1`, `Cc1ccc(S(=O)(=O)n2ccc3cc(Br)ccc32)cc1` is higher in melting point: 64.7 to 65.8 °C for the first, 135 °C for the second.

First: CC(C)=CC(C#N)NC(=O)c1cn(C)nc1C (centres undefined)
Second: Cc1nccc2[nH]c(=O)c(C(=O)NN)cc12
The melting point of the first is lower: 110 to 112 °C for the first, > 310 °C for the second.

Compared with `NC(=O)c1[nH]cnc1OC(=O)C=Cc1ccccc1`, `CC(C)[C@@H](NC(=O)OCc1ccccc1)C(=O)C=[N+]=[N-]` is lower in melting point: 170 to 175 °C for the first, 68 to 69 °C for the second.

Compared with `C[C@@H]1C[C@@H]2c3cccc4c3N(CCNC4)[C@@H]2C1`, `N#CC1(Nc2ccccc2)CCN(C2C3CCCC2CCC3)CC1` (centres undefined) is higher in melting point: 155 to 158 °C for the first, 168 °C for the second.

First: O=C1Nc2ccc(Br)cc2C2(CCCC2)O1
Second: c1nc(Cc2ccc3c(c2)COCO3)c[nH]1
The melting point of the first is higher: 180 to 185 °C for the first, 145 °C for the second.

First: CC(C)(C)C(O)Cn1ccnc1 (centres undefined)
Second: C[C@](N)(CO)CCc1ccc2oc(-c3ccc(O)cc3)nc2c1
The melting point of the first is higher: 239 to 241 °C for the first, 229 to 231 °C for the second.

Compared with `CCCc1nc2c(N)nc(C)c(C)c2n1CC1(O)CCCCC1`, `Cc1cccc(C)c1NC(N)=NOC1CCCCO1` (centres undefined) is lower in melting point: 214 to 216 °C for the first, 196 to 197 °C for the second.

First: CSc1ccc(-c2nc3[nH]nc(N)c3c(=O)n2-c2ccc(C)cc2)cc1
Second: CN(Cc1ccccc1)C(=O)c1cnc2c3c(c(F)cc2c1)C(=O)C(C#N)C=N3 (centres undefined)
The melting point of the first is higher: > 285 °C for the first, 267 to 269 °C for the second.

First: CCN1CCN(C(=O)N2CCC(N3N=C(c4ccc(OC)c(OC)c4)[C@H]4CC=CC[C@H]4C3=O)CC2)C(=O)C1=O
Second: O=C(c1ccc([N+](=O)[O-])cc1Cl)N1CCCCc2ncccc21
The melting point of the first is higher: 226 to 228 °C for the first, 143 to 145 °C for the second.

`CCOC(=O)c1ncc2[nH]c3c([N+](=O)[O-])cc([N+](=O)[O-])cc3c2n1` gave a melting point of 295 to 299 °C.
